# Reference: PMC6007841 (Journal of medicinal chemistry, 2018)
# Values joined by “and” are separate entries in the source; they are usually repeats but may differ in a detail not shown here. Equal entries are not always repeated. Bridge positions count the residues as written; N and C are the ends. Ends that are not written are not given here. Peptide text beside a SMILES is read from it.
# What was measured:
# [1] = molecular target: T1, hMC1R (Homo sapiens, UniProt Q01726); conditions: human MC1R; HEK293 cells; cited from earlier work
# T1 sequence (Q01726 whole entry): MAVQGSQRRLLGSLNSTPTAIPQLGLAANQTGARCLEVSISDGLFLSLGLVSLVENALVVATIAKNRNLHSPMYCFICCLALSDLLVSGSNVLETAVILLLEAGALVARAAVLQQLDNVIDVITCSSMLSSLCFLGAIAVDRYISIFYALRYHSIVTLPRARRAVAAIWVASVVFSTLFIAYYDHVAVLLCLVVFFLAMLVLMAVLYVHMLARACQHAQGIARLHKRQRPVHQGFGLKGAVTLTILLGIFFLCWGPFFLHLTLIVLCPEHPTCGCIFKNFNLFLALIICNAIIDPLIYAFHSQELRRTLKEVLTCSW
# [2] = molecular target: T2, hMC4R (Homo sapiens, UniProt P32245); experiment: cAMP AlphaScreen agonist assay, hMC4R; conditions: for Agonist efficacy (in words): hMC4R, up to 100 μM, HEK293 cells, cAMP
# T2 sequence (P32245 whole entry): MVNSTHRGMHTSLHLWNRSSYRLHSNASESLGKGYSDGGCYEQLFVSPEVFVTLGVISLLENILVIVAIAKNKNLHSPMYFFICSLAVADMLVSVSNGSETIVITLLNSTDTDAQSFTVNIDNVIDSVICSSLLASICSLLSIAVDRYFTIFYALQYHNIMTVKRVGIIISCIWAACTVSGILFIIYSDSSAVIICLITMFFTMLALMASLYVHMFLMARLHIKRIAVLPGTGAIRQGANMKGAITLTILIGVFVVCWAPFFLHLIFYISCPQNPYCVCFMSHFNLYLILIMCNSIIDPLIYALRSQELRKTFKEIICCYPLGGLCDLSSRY
# [3] = molecular target: hMC3R (Homo sapiens, UniProt P41968); experiment: cAMP AlphaScreen agonist assay, hMC3R; conditions: for Agonist efficacy (in words): hMC3R, up to 100 μM, HEK293 cells, cAMP
# Sequence of hMC3R (P41968 whole entry): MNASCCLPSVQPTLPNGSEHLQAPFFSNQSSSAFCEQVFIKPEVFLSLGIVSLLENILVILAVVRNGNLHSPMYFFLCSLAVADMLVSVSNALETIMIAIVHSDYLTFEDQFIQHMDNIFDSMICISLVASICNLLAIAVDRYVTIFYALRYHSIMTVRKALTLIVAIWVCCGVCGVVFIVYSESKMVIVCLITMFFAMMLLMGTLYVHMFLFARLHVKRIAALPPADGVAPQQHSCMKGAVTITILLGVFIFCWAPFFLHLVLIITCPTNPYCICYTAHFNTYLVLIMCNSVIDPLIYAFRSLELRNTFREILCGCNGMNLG
# [4] = molecular target: hMC5R (Homo sapiens, UniProt P33032); experiment: cAMP AlphaScreen agonist assay, hMC5R; conditions: for Agonist efficacy (in words): hMC5R, up to 100 μM, HEK293 cells, cAMP
# Sequence of hMC5R (P33032 whole entry): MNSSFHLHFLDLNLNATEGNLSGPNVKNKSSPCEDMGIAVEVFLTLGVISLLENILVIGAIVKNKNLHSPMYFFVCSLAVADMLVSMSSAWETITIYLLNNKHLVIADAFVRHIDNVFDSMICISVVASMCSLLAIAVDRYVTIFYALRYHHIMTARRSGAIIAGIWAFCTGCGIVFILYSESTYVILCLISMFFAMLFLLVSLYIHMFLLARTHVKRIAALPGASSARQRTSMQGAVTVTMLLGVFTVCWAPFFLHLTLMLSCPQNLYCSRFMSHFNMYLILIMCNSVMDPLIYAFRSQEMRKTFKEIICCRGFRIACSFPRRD
# [5] = molecular target: T2, hMC4R; experiment: Competitive displacement binding, [125I]-NDP-MSH, hMC4R; conditions: HEK293 cells
# [6] = molecular target: T1, hMC1R; experiment: cAMP AlphaScreen agonist assay, hMC1R; conditions: for Agonist efficacy (in words): up to 100 μM, HEK293 cells, cAMP
# [7] = tested on: melanocortin receptors; experiment: cAMP agonist pharmacology at the melanocortin receptors; assay type: cell-based; conditions: cAMP based
# [8] = molecular target: mMC5R (Mus musculus, UniProt P41149); experiment: cAMP AlphaScreen agonist assay, mMC5R; conditions: for Agonist efficacy (in words): mMC5R, up to 100 μM, HEK293 cells, cAMP
# Sequence of mMC5R (P41149 whole entry): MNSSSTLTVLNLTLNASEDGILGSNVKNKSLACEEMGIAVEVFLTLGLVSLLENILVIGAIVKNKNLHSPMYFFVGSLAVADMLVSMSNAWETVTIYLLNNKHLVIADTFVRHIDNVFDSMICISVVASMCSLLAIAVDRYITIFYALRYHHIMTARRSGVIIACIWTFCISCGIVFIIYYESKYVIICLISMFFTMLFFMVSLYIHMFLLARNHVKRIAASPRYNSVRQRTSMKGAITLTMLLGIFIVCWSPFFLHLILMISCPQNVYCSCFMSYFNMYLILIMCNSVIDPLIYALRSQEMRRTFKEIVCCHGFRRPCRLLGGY
# [9] = molecular target: mMC1R (Mus musculus, UniProt Q01727); experiment: cAMP AlphaScreen agonist assay, mMC1R; conditions: for Agonist efficacy (in words): mMC1R, up to 100 μM, HEK293 cells, cAMP
# Sequence of mMC1R (Q01727 whole entry): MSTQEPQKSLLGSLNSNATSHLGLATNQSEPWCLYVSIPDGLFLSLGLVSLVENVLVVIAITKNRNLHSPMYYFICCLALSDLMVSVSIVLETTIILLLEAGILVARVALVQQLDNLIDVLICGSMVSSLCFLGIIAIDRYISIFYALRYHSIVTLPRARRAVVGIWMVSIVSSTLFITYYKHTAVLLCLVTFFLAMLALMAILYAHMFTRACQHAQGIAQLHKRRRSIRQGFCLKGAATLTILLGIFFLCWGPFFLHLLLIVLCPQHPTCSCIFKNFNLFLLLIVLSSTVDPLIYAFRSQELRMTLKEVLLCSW
# [10] = tested on: mice; experiment: Fasting feeding paradigm after central administration in cannulated male mice; assay type: in vivo, mouse; conditions: 100 μg at start of 22 h fast, vs saline
# [11] = molecular target: T3, mMC4R (Mus musculus, UniProt P56450); experiment: Competitive displacement binding, [125I]-NDP-MSH, mMC4R; conditions: HEK293 cells
# T3 sequence (P56450 whole entry): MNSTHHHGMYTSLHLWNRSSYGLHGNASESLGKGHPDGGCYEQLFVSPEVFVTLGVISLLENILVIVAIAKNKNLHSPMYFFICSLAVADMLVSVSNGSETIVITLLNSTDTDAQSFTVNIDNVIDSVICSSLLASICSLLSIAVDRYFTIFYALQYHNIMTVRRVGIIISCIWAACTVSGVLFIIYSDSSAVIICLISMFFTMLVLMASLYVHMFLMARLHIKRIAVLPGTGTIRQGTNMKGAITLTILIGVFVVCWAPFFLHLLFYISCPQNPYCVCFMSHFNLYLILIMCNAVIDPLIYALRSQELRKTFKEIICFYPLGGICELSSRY
# [12] = molecular target: mMC3R (Mus musculus, UniProt P33033); experiment: cAMP AlphaScreen agonist assay, mMC3R; conditions: HEK293 cells; for Agonist efficacy (in words): up to 100 μM
# Sequence of mMC3R (P33033 whole entry): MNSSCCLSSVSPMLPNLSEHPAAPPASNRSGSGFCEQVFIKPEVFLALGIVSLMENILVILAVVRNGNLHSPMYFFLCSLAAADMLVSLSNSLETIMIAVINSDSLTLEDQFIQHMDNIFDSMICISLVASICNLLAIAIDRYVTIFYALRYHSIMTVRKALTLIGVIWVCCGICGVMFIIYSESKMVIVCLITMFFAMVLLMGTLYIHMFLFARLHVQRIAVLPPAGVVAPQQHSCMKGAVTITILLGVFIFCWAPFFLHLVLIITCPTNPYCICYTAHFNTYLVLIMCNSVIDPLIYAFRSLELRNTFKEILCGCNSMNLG
# [13] = molecular target: T1, hMC1R; experiment: Competitive displacement binding, [125I]-NDP-MSH, hMC1R; conditions: HEK293 cells
# [14] = molecular target: T3, mMC4R; experiment: cAMP AlphaScreen agonist assay, mMC4R
# [15] = HEK293, read-out: Maximal stimulatory response at 100 μM
molecule,measurement,setting,value
"CC[C@H](C)[C@@H]1NC(=O)[C@H](CCCCN)NC(=O)[C@H]([C@@H](C)O)NC(=O)[C@H](Cc2ccccc2)NC(=O)[C@H]([C@@H](C)CC)NC(=O)[C@@H]2CCCN2C(=O)[C@@H]2CSSC[C@@H](C(=O)N[C@@H](CCCCN)C(=O)O)NC(=O)[C@@H]3CSSC[C@H](NC(=O)[C@H](CC(N)=O)NC(=O)[C@H](Cc4ccc(O)cc4)NC(=O)[C@H](Cc4c[nH]cn4)NC(=O)[C@@H](N)CC(=O)O)C(=O)N[C@@H](C(C)C)C(=O)N[C@@H](CO)C(=O)N[C@@H](CO)C(=O)NCC(=O)NCC(=O)N[C@@H](CCC(N)=O)C(=O)N[C@@H](CSSC[C@H](NC(=O)[C@H]([C@@H](C)O)NC(=O)CNC(=O)[C@H](CCC(N)=O)NC1=O)C(=O)N[C@@H](Cc1ccc(O)cc1)C(=O)N[C@@H](CCCNC(=N)N)C(=O)NCC(=O)N[C@@H](CCCCN)C(=O)N[C@@H](C)C(=O)N[C@@H](CCCCN)C(=O)N3)C(=O)N[C@@H](CC(C)C)C(=O)N[C@@H](Cc1ccc(O)cc1)C(=O)N[C@@H](CO)C(=O)N[C@@H](C)C(=O)N2 [hBD1] (H-DHYNCVSSGGQCLYSACPIFTKIQGTCYRGKAKCCK-OH; disulfide 5-34, 12-27, 17-35; N-terminus and C-terminus assumed)",Binding affinity,[1],30 nM and 30.0 nM
same,Agonist efficacy (in words),[2],Full agonist efficacy
same,Agonist efficacy (in words),[3],no activity
same,Agonist efficacy (in words),[4],no activity
same,Displacement of radiolabeled NDP-MSH (in words),[5],not sufficient displacement of the radiolabel to generate an IC50 values
same,Agonist efficacy (in words),[6]; hMC1R,Full agonist efficacy
CC[C@H](C)[C@H](NC(=O)[C@H](CCCCN)NC(=O)[C@@H](NC(=O)[C@H](Cc1ccccc1)NC(=O)[C@@H](NC(=O)[C@@H]1CCCN1C(=O)[C@H](CS)NC(=O)[C@H](C)NC(=O)[C@H](CO)NC(=O)[C@H](Cc1ccc(O)cc1)NC(=O)[C@H](CC(C)C)NC(=O)[C@H](CS)NC(=O)[C@H](CCC(N)=O)NC(=O)CNC(=O)CNC(=O)[C@H](CO)NC(=O)[C@H](CO)NC(=O)[C@@H](NC(=O)[C@H](CS)NC(=O)[C@H](CC(N)=O)NC(=O)[C@H](Cc1ccc(O)cc1)NC(=O)[C@H](Cc1c[nH]cn1)NC(=O)[C@@H](N)CC(=O)O)C(C)C)[C@@H](C)CC)[C@@H](C)O)C(=O)N[C@@H](CCC(N)=O)C(=O)NCC(=O)N[C@H](C(=O)N[C@@H](CS)C(=O)N[C@@H](Cc1ccc(O)cc1)C(=O)N[C@@H](CCCNC(=N)N)C(=O)NCC(=O)N[C@@H](CCCCN)C(=O)N[C@@H](C)C(=O)N[C@@H](CCCCN)C(=O)N[C@@H](CS)C(=O)N[C@@H](CS)C(=O)N[C@@H](CCCCN)C(=O)O)[C@@H](C)O [hBD1red] (H-DHYNCVSSGGQCLYSACPIFTKIQGTCYRGKAKCCK-OH; N-terminus and C-terminus assumed),Agonist efficacy (in words),[2],partial agonist stimulation
same,Agonist efficacy (in words),[6]; hMC1R,partial agonist stimulation
same,Agonist activity at the melanocortin receptors (in words),[7],no activity at the remaining receptor subtypes
"CC(C)C[C@@H]1NC(=O)[C@@H]2CSSC[C@@H]3NC(=O)[C@H]([C@@H](C)O)NC(=O)CNC(=O)[C@H](CCC(N)=O)NC(=O)[C@H](CC(C)C)NC(=O)[C@H](CCCCN)NC(=O)[C@H]([C@@H](C)O)NC(=O)[C@H](CC(N)=O)NC(=O)[C@H](CO)NC(=O)[C@@H]4CCCN4C(=O)[C@H](CSSC[C@@H](C(=O)N[C@@H](CCCCN)C(=O)N[C@@H](CO)C(=O)O)NC(=O)[C@H](CSSC[C@H](NC(=O)[C@H](CCCCN)NC(=O)[C@H](Cc4ccc(O)cc4)NC(=O)[C@H](CCC(N)=O)NC(=O)[C@@H](N)CC(=O)O)C(=O)N[C@@H](CC(C)C)C(=O)N[C@@H](CCC(N)=O)C(=O)N[C@@H](Cc4c[nH]cn4)C(=O)NCC(=O)NCC(=O)N[C@@H](Cc4ccccc4)C(=O)N2)NC(=O)[C@H](CC(N)=O)NC(=O)[C@@H]2CCCN2C(=O)[C@H](CCCCN)NC(=O)[C@H](CC(=O)O)NC(=O)[C@@H]2CCCN2C(=O)[C@H](CCCCN)NC3=O)NC(=O)[C@H](CO)NC(=O)[C@H](CO)NC(=O)[C@H](CCCNC(=N)N)NC1=O [mBD1] (H-DQYKCLQHGGFCLRSSCPSNTKLQGTCKPDKPNCCKS-OH; disulfide 5-34, 12-27, 17-35; N-terminus and C-terminus assumed)",Agonist efficacy (in words),[8],full agonist efficacy with micromolar potency
same,Agonist efficacy (in words),[2],full agonist efficacy with micromolar potency
same,Agonist efficacy (in words),[9],full agonist efficacy with micromolar potency
same,Agonist efficacy (in words),[3],full agonist efficacy with micromolar potency
same,Agonist efficacy (in words),[4],no activity
same,Displacement of radiolabeled NDP-MSH (in words),[5],unable to displace
same,Agonist efficacy (in words),[6]; hMC1R,full agonist efficacy with micromolar potency
same,"Body weight, specific time points",[10],no significance was observed at specific time points
same,"Cumulative food intake, follow-up analysis at specific time points",[10],follow-up analysis did not result in significance at a specific time point
same,Displacement of radiolabeled NDP-MSH (in words),[11],unable to displace
same,Agonist efficacy (in words),[12],full agonist efficacy with micromolar potency
same,Displacement of radiolabeled NDP-MSH (in words),[13],unable to displace
CC(C)C[C@H](NC(=O)[C@H](CS)NC(=O)[C@H](Cc1ccccc1)NC(=O)CNC(=O)CNC(=O)[C@H](Cc1c[nH]cn1)NC(=O)[C@H](CCC(N)=O)NC(=O)[C@H](CC(C)C)NC(=O)[C@H](CS)NC(=O)[C@H](CCCCN)NC(=O)[C@H](Cc1ccc(O)cc1)NC(=O)[C@H](CCC(N)=O)NC(=O)[C@@H](N)CC(=O)O)C(=O)N[C@@H](CCCNC(=N)N)C(=O)N[C@@H](CO)C(=O)N[C@@H](CO)C(=O)N[C@@H](CS)C(=O)N1CCC[C@H]1C(=O)N[C@@H](CO)C(=O)N[C@@H](CC(N)=O)C(=O)N[C@H](C(=O)N[C@@H](CCCCN)C(=O)N[C@@H](CC(C)C)C(=O)N[C@@H](CCC(N)=O)C(=O)NCC(=O)N[C@H](C(=O)N[C@@H](CS)C(=O)N[C@@H](CCCCN)C(=O)N1CCC[C@H]1C(=O)N[C@@H](CC(=O)O)C(=O)N[C@@H](CCCCN)C(=O)N1CCC[C@H]1C(=O)N[C@@H](CC(N)=O)C(=O)N[C@@H](CS)C(=O)N[C@@H](CS)C(=O)N[C@@H](CCCCN)C(=O)N[C@@H](CO)C(=O)O)[C@@H](C)O)[C@@H](C)O [mBD1red] (H-DQYKCLQHGGFCLRSSCPSNTKLQGTCKPDKPNCCKS-OH; N-terminus and C-terminus assumed),Agonist efficacy (in words),[3],unable to stimulate
same,Agonist efficacy (in words),[4],unable to stimulate
same,Agonist efficacy (in words),"[14]; mMC4R, up to 100 μM, HEK293 cells, cAMP",did not possess agonist activity
same,Lower agonist potency compared to the cyclic mBD1,"[6]; hMC1R, EC50 ratio mBD1red vs mBD1",3 fold
same,Agonist efficacy (in words),[6]; hMC1R,full agonist
same,Agonist efficacy (in words),[12],did not possess agonist activity
FLPKTLRKFFCRIRGGRCAVLNCLGKEEQIGRCSNSGRKCCRKKK (cysteines drawn unpaired) [mBD3*red],Emax at 100 µM,[8]; [15],35%
same,Emax at 100 µM,[2]; [15],50%
same,Emax at 100 µM,[9]; [15],40%
same,EC50,[3],> 100 µM
same,Emax at 100 µM,[4]; [15],40%
same,Emax at 100 µM,[14]; [15],40%
same,Emax at 100 µM,[6]; [15],45%
same,Maximal stimulatory response at 100 μM,"[12]; 100 μM, relative to maximal NDP-MSH signal",35% @ 100 μM
"FLPKTLRKFFCRIRGGRCAVLNCLGKEEQIGRCSNSGRKCCRKKK (disulfide 11-40, 18-33, 23-41) [mBD3*]",EC50,[3],> 100 µM
GIINTLQKYYCRVRGGRCAVLSCLPKEEQIGKCSTRGRKCCRRKK (cysteines drawn unpaired) [hBD3red],EC50,[8],> 100 µM
same,Agonist efficacy (in words),[8],unable to stimulate
same,EC50,[9],> 100 µM
same,Agonist efficacy (in words),[9],unable to stimulate
same,EC50,[3],> 100 µM
same,Agonist efficacy (in words),[3],unable to stimulate
